Reference: patent US8324202B2, “5-phenyl-1H-benzo [E] [1,4] diazepine compounds substituted with an hydroxamic acid group as histone deacetylase inhibitors” (Universita Degli Studi di Firenze, priority 2007, dated 2012)
Where “and” joins values, the source holds several entries; their conditions need not be identical. Equal values may be shown once. Read-outs that look alike come from different tables or passages of the source.

What was measured:
Assay type in all cases: cell-based, human
acetylated H4 histone = assay: Histone deacetylase inhibition: western blot for acetylated histone H4 in cells incubated 6 hours with drug; conditions: for Acetyl-H4 densitometric value: 6 hours, untreated = 0; for H4 histone acetylating activity, in words: summary in description
Description: (§1) The new described compounds were tested for their ability to inhibit the histone deacetylase activity by western blot for the acetylated isoforms of histone H3 and H4 and also to induce growth arrest in cancer cells by activating apoptosis and/or cell differentiation. Initially, biological activities of newly synthesized HDACi were assessed by using the human acute promyelocytic leukemia cell line NB4, as the experimental model. Cells were maintained in RPMI (Bio-Whittaker Europe, Verviers, Belgio) supplemented with 10% of fetal calf serum (FCS, Boehringer Mannheim, Germania) and 2 mM glutamine (Merck, Darmstadt, Germania) at 37° C. in a humidified atmosphere of 5% CO2. Cells were counted in a Burker chamber and cells viability was assessed by the trypan blu exclusion test.
(§2) Cells, obtained as described above, were harvested in sterile plates (Falcon, Becton Dickinson, Franklin Lakes, N.J.) at density of 6×10^5/mL, and incubated for 6 hours with increasing drug concentration of single compounds. Then, the cells were lysated with RIPA buffer (50 mM Tris-HCl pH 7.4, 150 mM NaCl, 1% Nonidet P-40, 1 mM EDTA plus protease inhibitor cocktail (Protease Inhibitor Cocktail Set III, n° cat. 539134, Calbiochem, Merck, Darmstadt, Germany) and sonicated (Labsonic 1510) twice for 15s pulses at 1-2 Watts in ice. Protein concentration of cell extracts was determined according to the bicinchoninic acid colorimetric method (BCA, Pierce, Rockford, USA) by using serum bovine albumin as the standard (BSA, Sigma, Steinheim, Germania). Equal amounts of protein (20-40 μg/20-30 μL/well) were separated on NuPAGE Bis-Tris 12% gel (Novex, Invitrogen, Carlsbad, Calif.) 10% and transferred to nitrocellulose membranes (Pro-Bind, pore diameter=0.45 μm; Amersham Pharmacia). Then membranes, incubated in phosphate buffer saline (PBS) with 6% defatted dry milk as blocking solution to saturate unspecific binding sites, were probed overnight at 4° C. with primary antibodies (1;1000 dilution in PBS) raised against acetylated H4 a H3 histone isoforms (Upstate Technologies, Lake Placid, N.Y., USA). […] The experiment was performed with the compound (II) S form, where R1 and R2 can be independently a methyl group or hydrogen.

NB4 cells [1] = assay: Granulocytic differentiation, cytofluorimetric analysis of CD11b membrane expression, alone or with ATRA; conditions: for % of CD11b+ cells: three days
Description: Identification of markers of myeloid maturation was determined by flow cytometry by labelling cells with PE-conjugated antibody and FITC-conjugated antibody to CD11b (granulocyte marker) and CD14 (monocyte marker) respectively (Becton-Dickinson). Cell suspension aliquots (1×10^5 cells) were washed with cell wash buffer (Becton-Dickinson) and incubated with antibodies for 30 minutes in ice. After the incubation cells, resuspended in 0.3 mL of buffer containing Actinomycin D (Becton-Dickinson) to evaluate cell viability, were submitted to the cytofluorimetric analysis (FACScan, Becton-Dickinson). Cells incubated with appropriately labeled isotype controls were used to gate nonspecific fluorescence signal.
(§3) • Compounds (II) in racemic form and enantiomers S or R. • Compounds (III) in racemic form and enantiomers S or R. • Compounds (II) with R1 and R2=hydrogen were tested for their capability to synergize with ATRA and for their ability to induce granulocyte differentiation in the human promyelocytic cell line NB4. ATRA at the final concentration of 1 μM is usually employed to induce granulocyte differentiation in NB4 cells.
(§4) NB4 cells were incubated for three days in presence of the compounds listed above, alone or in combination with ATRA. Granulocyte differentiation of leukemic cells was determined by (a) Nitro-Blu tetrazolium (NBT) reduction to dark formazan precipitate (blu positive cells) counting NBT positive cells on Burker chamber and (b) cytofluorimetric analysis of CD11b membrane expression (granulocyte marker, see example 32).

NB4 cells [2] = assay: Cytostatic and apoptotic activity, Annexin-V-FLUOS/propidium iodide flow cytometry, 48 hours; conditions: for IC50: 48 hours, graphic extrapolation of Annexin-V results, viable cells over control, read-out: IC50 (drug concentration reducing cell density or viability by 50%); for apoptotic activity, in words: leukemic cells, summary in description
Description: as §1
Cells, were initially harvested at 4×10^5/mL (3 mL/well) cell density 24 well plate and incubated for 48 hours with increasing drug concentration. All compounds were solubilized in DMSO so that the final concentration of vehicle in culture was lower than 0.1%. At the end of treatment cell viability and apoptosis were evaluated by cytofluorimetric analysis using Anexin-V-Fluos staining (Annexin-V-FLUOS Staining Kit, Roche Molecular Biochemicals, Mannheim, Germany).
Necrotic cells, which are also Annexin-V positive, were identified by using Propidium iodide fluorochrome, that is capable of penetrating cell membranes of dying or dead cells and binding DNA.
Briefly, aliquots of cell suspensions (approximately 10^5 cells) washed in buffer PBS, were resuspended in 5 μl of binding buffer containing annexin V-fluorescein isothiocyanate (FITC) and propidium iodide; incubation was carried out for 15 minutes at room temperature, and cells were then analyzed by flow cytometry (FACScan Becton-Dickinson, San Jose, Calif.).
The IC50 values (i.e. the drug concentration necessary to reduce cell density or viability by 50% as compared to untreated control cultures) obtained by graphic extrapolation of the Anexin-V results and expressed as percentage of viable cells over control were reported In Table 2.
Data represent the percentage of viable cells as the function of drug concentration.

NB4 cells [3] = assay: Granulocytic differentiation, NBT reduction assay, alone or with ATRA; conditions: for % of NBT+ cells: three days; for effect on granulocytic differentiation / NBT positive cells, in words: alone or in combination with 20 nM ATRA
Description: The analysis of functional myeloid differentiation induced by compounds of the invention was accomplished by Nitro-Blu tetrazolium (NBT) reduction assay as described below. Cell suspension (approximately 10^5/mL) were incubated in the presence of 0.25 mg/mL NBT and 500 ng of PMA (Phorbol-12-Myristate 13-acetate) (Sigma) at 37° C. for 30 minutes. Granulocyte or monocyte differentiated cell were capable of reducing NBT to dark formazan precipitate (blu positive cells). NBT positive cells were counted on Burker chamber and expressed as percentage of total cell population.
as §3, §4

acetylated H3 histone = assay: Histone deacetylase inhibition: western blot for acetylated histone H3 in cells incubated 6 hours with drug; conditions: for Acetyl-H3 densitometric value: 6 hours, untreated = 1; for HDAC inhibitory / acetylating activity, in words (histone not specified) / H3 histone acetylating activity, in words: summary in description
Description: as §1, §2

Structure (SMILES): CC1N=C(c2ccccc2)c2cc(C#CCCCC(=O)NO)ccc2N(C)C1=O (racemic) [Compound (II) racemic with R1 or R2 = Me, N-hydroxy-6-(1,3-dimethyl-2-oxo-5-phenyl-2,3-dihydro-1H-benzo[e][1,4]diazepin-7-yl)-5-hexynamide]
- Acetyl-H4 densitometric value (acetylated H4 histone; 1 μM): 1.67 arbitrary units
- Acetyl-H4 densitometric value (acetylated H4 histone; 2 μM): 5.92 arbitrary units
- Acetyl-H4 densitometric value (acetylated H4 histone; 5 μM): 16.29 arbitrary units
- % of CD11b+ cells (NB4 cells [1]; 3 μM compound + 20 nM ATRA): 81.7%
- % of CD11b+ cells (NB4 cells [1]; 3 μM compound alone): 31.2%
- IC50 (NB4 cells [2]; Homo sapiens, NB-4): 3.4 µM
- apoptotic activity, in words (NB4 cells [2]): good ability to induce apoptosis
- increase of NBT positive cells, combination versus each agent alone (NB4 cells [3]; 3 μM compound + 20 nM ATRA): up to 50 fold
- % of NBT+ cells (NB4 cells [3]; 3 μM compound + 20 nM ATRA): 72%
- % of NBT+ cells (NB4 cells [3]; 3 μM compound alone): ≦1%
- Acetyl-H3 densitometric value (acetylated H3 histone; 1 μM): 3.73 arbitrary units
- Acetyl-H3 densitometric value (acetylated H3 histone; 2 μM): 4.61 arbitrary units
- Acetyl-H3 densitometric value (acetylated H3 histone; 5 μM): 5.19 arbitrary units

Structure (SMILES): CC1N=C(c2ccccc2)c2cc(NC(=O)CCCCCCC(=O)NO)ccc2N(C)C1=O (racemic) [Compound (III) racemic with R1 or R2 = Me, N1-hydroxy-N8-(1,3-dimethyl-2-oxo-5-phenyl-2,3-dihydro-1H-1,4-benzo[e][1,4]diazepin-7-yl)octanediamide]
- Acetyl-H4 densitometric value (acetylated H4 histone; 2 μM): 12.96 arbitrary units
- Acetyl-H4 densitometric value (acetylated H4 histone; 4 μM): 23.7 arbitrary units
- Acetyl-H4 densitometric value (acetylated H4 histone; 10 μM): 28.15 arbitrary units
- IC50 (NB4 cells [2]): 4 µM
- Acetyl-H3 densitometric value (acetylated H3 histone; 2 μM): 4.04 arbitrary units
- Acetyl-H3 densitometric value (acetylated H3 histone; 4 μM): 4.92 arbitrary units
- Acetyl-H3 densitometric value (acetylated H3 histone; 10 μM): 5.42 arbitrary units
- HDAC inhibitory / acetylating activity, in words (histone not specified) (acetylated H3 histone): good inhibitory activity

Structure (SMILES): CN1C(=O)C(NC(=O)CCCCCCC(=O)NO)N=C(c2ccccc2)c2ccccc21 (racemic) [Compound (IV) racemic, N1-hydroxy-N8-(1-methyl-2-oxo-5-phenyl-2,3-dihydro-1H-benzo[e][1,4]diazepin-3-yl)octanediamide]
- Acetyl-H4 densitometric value (acetylated H4 histone; 0.5 μM): 1 arbitrary units
- Acetyl-H4 densitometric value (acetylated H4 histone; 1 μM): 5.78 arbitrary units
- Acetyl-H4 densitometric value (acetylated H4 histone; 2.5 μM): 10.89 arbitrary units
- H4 histone acetylating activity, in words (acetylated H4 histone): good acetylating activity of H4 histone
- IC50 (NB4 cells [2]; Homo sapiens, NB-4): 0.57 µM
- Acetyl-H3 densitometric value (acetylated H3 histone; 0.5 μM): 2.67 arbitrary units
- Acetyl-H3 densitometric value (acetylated H3 histone; 1 μM): 3.17 arbitrary units
- Acetyl-H3 densitometric value (acetylated H3 histone; 2.5 μM): 3.38 arbitrary units
- H3 histone acetylating activity, in words (acetylated H3 histone): reasonably good activity toward H3 histone

Structure (SMILES): CC1=C(/C=C/C(C)=C/C=C/C(C)=C/C(=O)O)C(C)(C)CCC1 [ATRA, all-trans-retinoc acid, reference compound]
- % of CD11b+ cells (NB4 cells [1]; 20 nM ATRA alone): 13% and 10%
- % of CD11b+ cells (NB4 cells [1]; 1 μM ATRA alone): 80% and 71.3% and 72%
- % of NBT+ cells (NB4 cells [3]; 20 nM ATRA alone): 12% and 15%
- % of NBT+ cells (NB4 cells [3]; 1 μM ATRA alone): 78% and 80%

Structure (SMILES): C[C@H]1N=C(c2ccccc2)c2cc(C#CCCCC(=O)NO)ccc2N(C)C1=O [Compound (II) R form with R1 or R2 = Me, (R)-6-(1,3-dimethyl-2-oxo-5-phenyl-2,3-dihydro-1H-benzo[e][1,4]diazepin-7-yl)-N-hydroxyhex-5-ynamide]
- Acetyl-H4 densitometric value (acetylated H4 histone; 0.5 μM): 0 arbitrary units
- Acetyl-H4 densitometric value (acetylated H4 histone; 1 μM): 0 arbitrary units
- Acetyl-H4 densitometric value (acetylated H4 histone; 2.5 μM): 0 arbitrary units
- H4 histone acetylating activity, in words (acetylated H4 histone): does not show hyperacetylating activity on H4 histones
- % of CD11b+ cells (NB4 cells [1]; 1.5 μM compound + 20 nM ATRA): 19.8%
- % of CD11b+ cells (NB4 cells [1]; 1.5 μM compound alone): 14.2%
- % of NBT+ cells (NB4 cells [3]; 1.5 μM compound + 20 nM ATRA): 13.1%
- % of NBT+ cells (NB4 cells [3]; 1.5 μM compound alone): ≦1%
- effect on granulocytic differentiation / NBT positive cells, in words (NB4 cells [3]): no appreciable effect on granulocytic differentiation
- Acetyl-H3 densitometric value (acetylated H3 histone; 0.5 μM): 2.5 arbitrary units
- Acetyl-H3 densitometric value (acetylated H3 histone; 1 μM): 2.54 arbitrary units
- Acetyl-H3 densitometric value (acetylated H3 histone; 2.5 μM): 3.69 arbitrary units
- H3 histone acetylating activity, in words (acetylated H3 histone): good activity toward H3 histone

Structure (SMILES): CN1C(=O)CN=C(c2ccccc2)c2cc(NC(=O)CCCCCCC(=O)NO)ccc21 [Compound (III) R1 and R2 = hydrogen, N1-(1-methyl-2-oxo-5-phenyl-2,3-dihydro-1H-benzo[e][1,4]diazepin-7-yl)-N8-hydroxyoctanediamide]
- Acetyl-H4 densitometric value (acetylated H4 histone; 1 μM): 2.39 arbitrary units
- Acetyl-H4 densitometric value (acetylated H4 histone; 2 μM): 6.63 arbitrary units
- IC50 (NB4 cells [2]; Homo sapiens, NB-4): 3 µM
- apoptotic activity, in words (NB4 cells [2]): good acetylating and apoptotic activities
- Acetyl-H3 densitometric value (acetylated H3 histone; 1 μM): 2.84 arbitrary units
- Acetyl-H3 densitometric value (acetylated H3 histone; 2 μM): 3.23 arbitrary units
- HDAC inhibitory / acetylating activity, in words (histone not specified) (acetylated H3 histone): good acetylating and apoptotic activities

Structure (SMILES): C[C@@H]1N=C(c2ccccc2)c2cc(NC(=O)CCCCCCC(=O)NO)ccc2N(C)C1=O [Compound (III) S form with R1 or R2 = Me, (S)—N-1-(1,3-dimethyl-2-oxo-5-phenyl-2,3-dihydro-1H-benzo[e][1,4]diazepin-7-yl)-N8-hydroxyoctanediamide]
- Acetyl-H4 densitometric value (acetylated H4 histone; 1 μM): 3 arbitrary units
- Acetyl-H4 densitometric value (acetylated H4 histone; 2 μM): 4.81 arbitrary units
- Acetyl-H4 densitometric value (acetylated H4 histone; 5 μM): 12.59 arbitrary units
- % of CD11b+ cells (NB4 cells [1]; 3 μM compound + 20 nM ATRA): 7.4%
- % of CD11b+ cells (NB4 cells [1]; 3 μM compound alone): 26%
- effect on CD11b positive cells, in words (NB4 cells [1]; alone or in combination with 20 nM ATRA): no increase in CD11b positive cells
- % of NBT+ cells (NB4 cells [3]; 3 μM compound + 20 nM ATRA): 40%
- % of NBT+ cells (NB4 cells [3]; 3 μM compound alone): 3%
- effect on granulocytic differentiation / NBT positive cells, in words (NB4 cells [3]): strong synergistic increase of NBT positive cells
- Acetyl-H3 densitometric value (acetylated H3 histone; 1 μM): 2.73 arbitrary units
- Acetyl-H3 densitometric value (acetylated H3 histone; 2 μM): 2.65 arbitrary units
- Acetyl-H3 densitometric value (acetylated H3 histone; 5 μM): 3.61 arbitrary units
- HDAC inhibitory / acetylating activity, in words (histone not specified) (acetylated H3 histone): good inhibitory activity
